Series [1] deals with 293T cells.
The subject of series [2] is HeLa cells.
Series [3] concerns the target SARS-CoV-2 5-helix bundle (5-HB) protein (Severe acute respiratory syndrome coronavirus 2, UniProt P0DTC2). The experiment in a line: biochemical. It counts as binding.

Positions of bridges follow the written chain, without caps; N, C: chain ends. Non-standard residues stand in square brackets, D forms with d. Residues, ends and D or L forms follow the SMILES beside them. Groups on a side chain read outwards from the residue. *: point of attachment. Acetyl(2-S-cholesteryl) = CC(C)CCC[C@@H](C)[C@H]1CC[C@H]2[C@@H]3CC=C4C[C@@H](SCC(=O)*)CC[C@]4(C)[C@H]3CC[C@]12C; R8 = C=CCCCCCC[C@@](C)(N)C(=O)O; PEG4 = NCCOCCOCCOCCOCCC(=O)O; S5 = C=CCCC[C@](C)(N)C(=O)O; Nle = CCCC[C@H](N)C(=O)O

Turning to `CCCC[C@H](NC(=O)[C@H](CO)NC(=O)[C@H](CO)NC(=O)[C@@H](NC(=O)[C@H](CCC(N)=O)NC(=O)[C@H](CO)NC(=O)[C@H](CO)NC(=O)[C@@H](NC(=O)[C@H](CC(=O)O)NC(C)=O)[C@@H](C)CC)[C@@H](C)CC)C(=O)N[C@@H](CC(N)=O)C(=O)N[C@@H](CCC(N)=O)C(=O)N[C@@H](CO)C(=O)N[C@@H](CC(C)C)C(=O)N[C@]1(C)CCCCCCC=CCCC[C@@](C)(C(=O)N[C@@H](CCC(=O)O)C(=O)N[C@@H](C)C(=O)N[C@@H](CCC(N)=O)C(=O)N[C@@H](CCCCN)C(=O)N[C@H](C(=O)N[C@@H](CC(C)C)C(=O)N[C@@H](CC(=O)O)C(=O)N[C@H](C(=O)N[C@H](C(=O)N[C@@H](CCCCNC(=O)CCOCCOCCOCCOCCNC(=O)CS[C@H]2CC[C@@]3(C)C(=CC[C@H]4[C@@H]5CC[C@H]([C@H](C)CCCC(C)C)[C@@]5(C)CC[C@@H]43)C2)C(N)=O)C(C)C)[C@@H](C)O)[C@@H](C)CC)NC(=O)[C@H]([C@@H](C)CC)NC(=O)[C@H](Cc2ccc(O)cc2)NC(=O)[C@H](CC(=O)O)NC(=O)[C@H](CCCCN)NC(=O)[C@H](CO)NC(=O)[C@H](CCC(N)=O)NC1=O` [SLI-NIPV] (Ac-DISSQISS[Nle]NQSL[R8]QSKDYI[S5]EAQKILDTVK([PEG4-Acetyl(2-S-cholesteryl)])-NH2; staple 14-21), the cytotoxicity entry in series [1] was “no cytotoxicity”. Consider `CC[C@H](C)[C@H](NC(=O)[C@H](C)NC(=O)[C@H](CS)NC(=O)[C@H](CC(=O)O)NC(=O)[C@@H]1CCCN1C(=O)CNC(=O)[C@H](CC(C)C)NC(=O)[C@@H](NC(=O)[C@H](Cc1c[nH]cn1)NC(=O)[C@H](CS)NC(=O)[C@@H](NC(C)=O)[C@@H](C)O)[C@@H](C)CC)C(=O)N[C@@H](CCC(=O)O)C(=O)N1CCC[C@H]1C(=O)N[C@@H](Cc1c[nH]cn1)C(=O)N[C@@H](CC(=O)O)C(=O)N[C@@H](Cc1c[nH]c2ccccc12)C(=O)N[C@H](C(=O)N[C@]1(C)CCCCCCC=CCCC[C@@](C)(C(=O)N[C@@H](CCC(N)=O)C(=O)N[C@H](C(=O)N[C@H](C(=O)N[C@@H](Cc2c[nH]cn2)C(=O)N[C@@H](CC(=O)O)C(=O)N[C@@H](Cc2ccccc2)C(=O)N[C@H](C(=O)N[C@@H](CCCCNC(=O)CCOCCOCCOCCOCCNC(=O)CS[C@H]2CC[C@@]3(C)C(=CC[C@H]4[C@@H]5CC[C@H]([C@H](C)CCCC(C)C)[C@@]5(C)CC[C@@H]43)C2)C(N)=O)C(C)C)[C@@H](C)CC)[C@@H](C)CC)NC(=O)[C@H]([C@@H](C)CC)NC(=O)[C@H](CCCCN)NC(=O)[C@H](CC(=O)O)NC(=O)[C@H]([C@@H](C)O)NC(=O)[C@H]([C@@H](C)CC)NC(=O)[C@H](CCC(=O)O)NC1=O)[C@@H](C)O` [SLI-EBOV] (Ac-TCHILGPDCAIEPHDWT[R8]EITDKI[S5]QIIHDFVK([PEG4-Acetyl(2-S-cholesteryl)])-NH2; staple 18-25), for which, in series [2], the cytotoxicity result was “no cytotoxicity”.

As for `CC[C@H](C)[C@H](NC(=O)CNC(=O)[C@H](CO)NC(=O)[C@@H](NC(=O)[C@H](CC(=O)O)NC(C)=O)[C@@H](C)CC)C(=O)N[C@@H](CC(N)=O)C(=O)N[C@@H](C)C(=O)N[C@@H](CO)C(=O)N[C@H](C(=O)N[C@H](C(=O)N[C@@H](CC(N)=O)C(=O)N[C@H](C(=O)N[C@]1(C)CCCCCCC=CCCC[C@@](C)(C(=O)N[C@@H](CCC(=O)O)C(=O)N[C@H](C(=O)N[C@@H](C)C(=O)N[C@@H](CCCCN)C(=O)N[C@@H](CC(N)=O)C(=O)N[C@@H](CC(C)C)C(=O)N[C@@H](CC(N)=O)C(=O)N[C@@H](CCC(=O)O)C(=O)N[C@@H](CO)C(=O)N[C@@H](CC(C)C)C(=O)N[C@H](C(=O)N[C@@H](CC(=O)O)C(=O)N[C@@H](CC(C)C)C(=O)N[C@@H](CCC(N)=O)C(=O)N[C@@H](CCC(=O)O)C(=O)N[C@@H](CC(C)C)C(=O)NCC(=O)N[C@@H](CCCCN)C(N)=O)[C@@H](C)CC)C(C)C)NC(=O)[C@H](CC(C)C)NC(=O)[C@H](CCCNC(=N)N)NC(=O)[C@H](CC(=O)O)NC(=O)[C@H]([C@@H](C)CC)NC(=O)[C@H](CCC(=O)O)NC(=O)[C@H](CCCCN)NC1=O)[C@@H](C)CC)C(C)C)C(C)C` [RQ-01 (- linker-lipid)], the “improvement of affinity compared to the unstapled HR2 peptide” value in series [3] was 7.5 fold.

(Values after PMC10766962 (Nature Communications, 2024).)
